Reference: PubChem BioAssay (NCI)
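Protocol summary: plate cells (96-well), add compound at 5 concentrations, incubate 48 h, interpolate endpoints linearly. The concentration for full growth arrest is given as TGI.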

Tests used:
Assay in all cases: DTP human tumour cell line panel, 48 h
[1] = tested on: RPMI-8226 leukemia
[2] = tested on: NCI-H522 lung
[3] = tested on: LOX IMVI melanoma
[4] = tested on: SNB-19 CNS
[5] = tested on: KM12 colon
[6] = tested on: ACHN renal
[7] = tested on: EKVX NSCLC
[8] = tested on: K-562 leukemia
[9] = tested on: HCC-2998 colon
[10] = tested on: OVCAR-5 ovarian
[11] = tested on: SK-OV-3 ovarian
[12] = tested on: M14 melanoma
[13] = tested on: DU-145 prostate
[14] = tested on: UACC-62 melanoma
[15] = tested on: BT-549 breast
[16] = tested on: SF-268 CNS
[17] = tested on: MDA-MB-231 breast
[18] = tested on: HCT-15 colon
[19] = tested on: 786-0 renal
[20] = tested on: CCRF-CEM leukemia
[21] = tested on: OVCAR-4 ovarian
[22] = tested on: MDA-N
[23] = tested on: UACC-257 melanoma
[24] = tested on: SK-MEL-28 melanoma
[25] = tested on: NCI-H460 lung
[26] = tested on: A549 NSCLC
[27] = tested on: PC-3 prostate
[28] = tested on: SK-MEL-2 melanoma
[29] = tested on: NCI/ADR-RES ovarian
[30] = tested on: NCI-H23 lung
[31] = tested on: HT29 colon
[32] = tested on: HCT-116 colon
[33] = tested on: SR leukemia
[34] = tested on: T-47D breast
[35] = tested on: SK-MEL-5 melanoma
[36] = tested on: MCF7 breast
[37] = tested on: RXF 393 renal
[38] = tested on: OVCAR-3 ovarian
[39] = tested on: NCI-H226 lung
[40] = tested on: MDA-MB-435
[41] = tested on: OVCAR-8 ovarian
[42] = tested on: MALME-3M melanoma
[43] = tested on: CAKI-1 renal
[44] = tested on: SW-620 colon
[45] = tested on: HS 578T breast
[46] = tested on: A498 renal
[47] = tested on: U251 CNS
[48] = tested on: SN12C renal
[49] = tested on: IGROV1 ovarian
[50] = tested on: SF-295 CNS
[51] = tested on: UO-31 renal
[52] = tested on: HL-60(TB) leukemia
[53] = tested on: COLO 205 colon
[54] = tested on: MOLT-4 leukemia
[55] = tested on: HOP-62 NSCLC
[56] = tested on: SF-539 CNS
[57] = tested on: HOP-92 NSCLC
[58] = tested on: TK-10 renal
[59] = tested on: SNB-75 CNS

With NC(N)=N/N=C/c1c(-c2ccc([N+](=O)[O-])cc2)nc2n1CCS2 the TGI [1] was > 63.3 µM, the TGI [2] was 29.4 µM and the TGI [3] was 35 µM. The TGI [4] was 11.4 µM, the TGI [5] was 21.7 µM and the TGI [6] was 30.7 µM. The TGI [7] was 37.8 µM, the TGI [8] was 22.6 µM and the TGI [9] was 19.7 µM. For the same compound, the TGI [10] was 28 µM, the TGI [11] was 43.2 µM and the TGI [12] was 30.2 µM. It also gave a TGI [13] of 28.1 µM, a TGI [14] of 35.3 µM and a TGI [15] of 34.2 µM. The TGI [16] was 25.4 µM, the TGI [17] was 16 µM and the TGI [18] was 36.7 µM. The TGI [19] was 20.9 µM, the TGI [20] was 11.8 µM and the TGI [21] was 27.7 µM. For the same compound, the TGI [22] was 26.5 µM, the TGI [23] was 35.6 µM and the TGI [24] was 34.8 µM. For the same compound, the TGI [25] was 32.3 µM, the TGI [26] was 36.2 µM and the TGI [27] was 27.7 µM. The TGI [28] was 22 µM, the TGI [29] was > 100 µM and the TGI [30] was 31.3 µM. The TGI [31] was 31 µM, the TGI [32] was 23 µM and the TGI [33] was 5.71 µM. The TGI [34] was 16.3 µM, the TGI [35] was 32 µM and the TGI [36] was 30.3 µM. The TGI [37] was 23.4 µM, the TGI [38] was 41.3 µM and the TGI [39] was 42.9 µM. For the same compound, the TGI [40] was 43.5 µM, the TGI [41] was 29.2 µM and the TGI [42] was 36.6 µM. The TGI [43] was 34.4 µM, the TGI [44] was 7.33 µM and the TGI [45] was 39.1 µM. For the same compound, the TGI [46] was 42 µM, the TGI [47] was 6.49 µM and the TGI [48] was 19.2 µM. It also gave a TGI [49] of 38.6 µM, a TGI [50] of 36.7 µM and a TGI [51] of 30.2 µM. The TGI [52] was 25.1 µM, the TGI [53] was 7.8 µM and the TGI [54] was > 33 µM. The TGI [55] was 61.5 µM, the TGI [56] was 32.3 µM and the TGI [57] was 40.5 µM. For the same compound, the TGI [58] was 31.5 µM and the TGI [59] was 14.5 µM.

For COc1c2ccccc2c(OC)c2nc(C)ccc12, the TGI [1] was > 100 µM, the TGI [2] was > 100 µM and the TGI [3] was 56.1 µM. For the same compound, the TGI [4] was > 100 µM, the TGI [5] was > 100 µM and the TGI [6] was > 100 µM. For the same compound, the TGI [7] was > 100 µM, the TGI [8] was > 78.6 µM and the TGI [9] was > 100 µM. For the same compound, the TGI [10] was > 100 µM, the TGI [11] was > 100 µM and the TGI [12] was > 100 µM. The TGI [13] was > 100 µM, the TGI [14] was > 100 µM and the TGI [15] was > 100 µM. For the same compound, the TGI [16] was > 100 µM, the TGI [17] was > 100 µM and the TGI [18] was > 100 µM. The TGI [19] was > 100 µM, the TGI [20] was 71.6 µM and the TGI [21] was > 100 µM. For the same compound, the TGI [22] was > 100 µM, the TGI [23] was > 100 µM and the TGI [24] was > 100 µM. The TGI [25] was > 100 µM, the TGI [26] was > 100 µM and the TGI [27] was > 100 µM. For the same compound, the TGI [28] was > 100 µM, the TGI [29] was > 100 µM and the TGI [30] was > 100 µM. The TGI [31] was > 100 µM, the TGI [32] was > 100 µM and the TGI [33] was > 79.5 µM. The TGI [34] was > 100 µM, the TGI [35] was > 100 µM and the TGI [36] was > 100 µM. The TGI [37] was > 100 µM, the TGI [38] was > 100 µM and the TGI [39] was > 100 µM. The TGI [40] was > 100 µM, the TGI [41] was > 100 µM and the TGI [42] was > 100 µM. The TGI [43] was > 100 µM, the TGI [44] was > 100 µM and the TGI [45] was > 100 µM. For the same compound, the TGI [46] was > 100 µM, the TGI [47] was > 46.4 µM and the TGI [48] was > 100 µM. For the same compound, the TGI [49] was > 100 µM, the TGI [50] was > 100 µM and the TGI [51] was > 100 µM. The TGI [52] was 61.8 µM, the TGI [53] was > 96.7 µM and the TGI [54] was 99.7 µM. The TGI [55] was > 100 µM, the TGI [56] was > 100 µM and the TGI [57] was > 100 µM. The TGI [58] was > 100 µM and the TGI [59] was > 100 µM.

C=CCC(C(=O)O)c1ccccc1 (configuration not stated) was tested, and the TGI [1] was > 100 µM, the TGI [2] was > 100 µM and the TGI [3] was > 100 µM. For the same compound, the TGI [4] was > 100 µM, the TGI [5] was > 100 µM and the TGI [6] was > 100 µM. The TGI [7] was > 100 µM, the TGI [8] was > 100 µM and the TGI [9] was > 100 µM. The TGI [10] was > 100 µM, the TGI [11] was > 100 µM and the TGI [12] was > 100 µM. For the same compound, the TGI [13] was > 100 µM, the TGI [14] was > 100 µM and the TGI [15] was > 100 µM. The TGI [16] was > 100 µM, the TGI [17] was > 100 µM and the TGI [18] was > 100 µM. The TGI [19] was > 100 µM, the TGI [20] was > 100 µM and the TGI [21] was > 100 µM. For the same compound, the TGI [22] was > 100 µM, the TGI [23] was > 100 µM and the TGI [24] was > 100 µM. For the same compound, the TGI [25] was > 100 µM, the TGI [26] was > 100 µM and the TGI [27] was > 100 µM. The TGI [28] was > 100 µM, the TGI [29] was > 100 µM and the TGI [30] was > 100 µM. The TGI [31] was > 100 µM, the TGI [32] was > 100 µM and the TGI [33] was > 100 µM. The TGI [34] was > 100 µM, the TGI [35] was > 100 µM and the TGI [36] was > 100 µM. For the same compound, the TGI [37] was > 100 µM, the TGI [38] was > 100 µM and the TGI [39] was > 100 µM. For the same compound, the TGI [40] was > 100 µM, the TGI [41] was > 100 µM and the TGI [42] was > 100 µM. The TGI [43] was > 100 µM, the TGI [44] was > 100 µM and the TGI [45] was > 100 µM. For the same compound, the TGI [46] was > 100 µM, the TGI [47] was > 100 µM and the TGI [48] was > 100 µM. The TGI [49] was > 100 µM, the TGI [50] was > 100 µM and the TGI [51] was > 100 µM. The TGI [52] was > 100 µM, the TGI [53] was > 100 µM and the TGI [54] was > 100 µM. For the same compound, the TGI [55] was > 100 µM, the TGI [56] was > 100 µM and the TGI [57] was > 100 µM. For the same compound, the TGI [58] was > 100 µM and the TGI [59] was > 100 µM.
